Assay results reported in PubChem BioAssay AID1963861 (Molecular Pharmacology Branch, DTP, NCI, 2024).
Several values for one entry are separate records, joined by “and”; a condition that tells them apart may be missing. Equal values may be shown once.

System: 885724-159-R-J1-PDC KRAS PDC multicell spheroid viability
Experiment: Anticancer human tumor 885724-159-R-J1-PDC patient-derived pancreatic adenocarcinoma cell line growth inhibition [KRAS2]
Details: for viability, T/C: stronger effect = lower value
In short: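 Combination screen of spheroid viability in tumor-cell co-cultures with endothelial (HUVEC) and mesenchymal stem cell stroma. Each agent was tested in half-log dilutions, topping at clinical Cmax or at 10 microM without a known Cmax.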

[1] = curve of first compound, second compound 0.1 µM
[2] = curve of first compound, second compound 0.316 µM
[3] = curve of first compound, second compound 1 µM
[4] = curve of first compound, second compound 3.16 µM
[5] = second compound 0.1 µM, first compound 0.0316 µM
[6] = second compound 0.1 µM, first compound 0.1 µM
[7] = second compound 0.1 µM, first compound 0.316 µM
[8] = second compound 0.1 µM, first compound 1 µM
[9] = second compound 0.1 µM, first compound 3.16 µM
[10] = second compound 0.316 µM, first compound 0.0316 µM
[11] = second compound 0.316 µM, first compound 0.1 µM
[12] = second compound 0.316 µM, first compound 0.316 µM
[13] = second compound 0.316 µM, first compound 1 µM
[14] = second compound 0.316 µM, first compound 3.16 µM
[15] = second compound 1 µM, first compound 0.0316 µM
[16] = second compound 1 µM, first compound 0.1 µM
[17] = second compound 1 µM, first compound 0.316 µM
[18] = second compound 1 µM, first compound 1 µM
[19] = second compound 1 µM, first compound 3.16 µM
[20] = second compound 3.16 µM, first compound 0.0316 µM
[21] = second compound 3.16 µM, first compound 0.1 µM
[22] = second compound 3.16 µM, first compound 0.316 µM
[23] = second compound 3.16 µM, first compound 1 µM
[24] = second compound 3.16 µM, first compound 3.16 µM
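Further: spheroids exposed to agents for 7 days before readout.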

`CC1OCC2(CCN(c3cnc(Sc4ccnc(N)c4Cl)c(N)n3)CC2)C1N` (centres undefined) was tested, and the viability, T/C (compound 0.0316 µM) was 99.7% and 101% and 102%, the viability, T/C (compound 0.1 µM) was 92.4% [middle of 19 runs] and the viability, T/C (compound 3.16 µM) was 71.4% [middle of 20 runs]. The IC50 (compound alone, run of 08/19/2021) was greater than 10 µM, the IC50 (compound alone, run of 08/26/2021) was greater than 10 µM and the IC50 (compound alone, run of 09/02/2021) was greater than 10 µM. The IC50 (curve of compound) was greater than 10 µM.

`COc1cc(Nc2ncc3c(n2)-c2ccc(Cl)cc2C(c2c(F)cccc2OC)=NC3)ccc1C(=O)O` + C=CC(=O)N1CCN(c2nc(OCC3CCCN3C)nc3c2CCN(c2cccc4cccc(C)c24)C3)CC1CC#N gave an IC50 (curve of first compound, second compound 0.0316 µM) greater than 10 µM, an IC50 [1] greater than 10 µM and an IC50 [2] greater than 10 µM. The IC50 [3] was greater than 10 µM, the IC50 [4] was less than 0.0316 µM and the viability, T/C (second compound 0.0316 µM, first compound 0.0316 µM) was 103%. For the same molecule, the viability, T/C (second compound 0.0316 µM, first compound 0.1 µM) was 92.4%, the viability, T/C (second compound 0.0316 µM, first compound 0.316 µM) was 87.9% and the viability, T/C (second compound 0.0316 µM, first compound 1 µM) was 92.4%. For the same molecule, the viability, T/C (second compound 0.0316 µM, first compound 3.16 µM) was 93.1%, the viability, T/C (second compound 0.0316 µM, first compound 10 µM) was 105% and the viability, T/C [5] was 100%. For the same molecule, the viability, T/C [6] was 88.8%, the viability, T/C [7] was 88.9% and the viability, T/C [8] was 90.4%. The viability, T/C [9] was 99.4%, the viability, T/C (second compound 0.1 µM, first compound 10 µM) was 100% and the viability, T/C [10] was 89.2%. For the same molecule, the viability, T/C [11] was 84%, the viability, T/C [12] was 83.6% and the viability, T/C [13] was 84.2%. It also gave a viability, T/C [14] of 76.6%, a viability, T/C (second compound 0.316 µM, first compound 10 µM) of 89% and a viability, T/C [15] of 80%. For the same molecule, the viability, T/C [16] was 76.9%, the viability, T/C [17] was 77.8% and the viability, T/C [18] was 75.1%. The viability, T/C [19] was 75.7%, the viability, T/C (second compound 1 µM, first compound 10 µM) was 78.2% and the viability, T/C [20] was 46.9%. The viability, T/C [21] was 46.3%, the viability, T/C [22] was 42.3% and the viability, T/C [23] was 54.5%. The viability, T/C [24] was 60% and the viability, T/C (second compound 3.16 µM, first compound 10 µM) was 44.6%.

With `COc1cc2nccc(Oc3ccc(NC(=O)C4(C(=O)Nc5ccc(F)cc5)CC4)cc3)c2cc1OC` the viability, T/C (compound 0.0316 µM) was 111% [middle of 5 runs], the viability, T/C (compound 0.1 µM) was 108% [middle of 5 runs] and the viability, T/C (compound 0.316 µM) was 110% [middle of 5 runs]. The viability, T/C (compound 1 µM) was 102% [middle of 5 runs], the viability, T/C (compound 3.16 µM) was 74.1% [middle of 5 runs] and the viability, T/C (compound 10 µM) was 70.5% [middle of 5 runs]. It also gave an IC50 (curve of compound) greater than 10 µM.

`CC(=O)OC12COC1CC(O)C1(C)C(=O)C(O)C3=C(C)C(OC(=O)C(O)C(NC(=O)OC(C)(C)C)c4ccccc4)CC(O)(C(OC(=O)c4ccccc4)C21)C3(C)C` (centres undefined) + CC1OCC2(CCN(c3cnc(Sc4ccnc(N)c4Cl)c(N)n3)CC2)C1N showed an IC50 [1] greater than 3.16 µM, an IC50 [2] greater than 3.16 µM and an IC50 [3] greater than 3.16 µM. For the same molecule, the IC50 [4] was greater than 3.16 µM, the IC50 (curve of first compound, second compound 10 µM) was greater than 3.16 µM and the viability, T/C (second compound 0.1 µM, first compound 0.01 µM) was 103%. For the same molecule, the viability, T/C [5] was 110%, the viability, T/C [6] was 108% and the viability, T/C [7] was 117%. It also gave a viability, T/C [8] of 122%, a viability, T/C [9] of 121% and a viability, T/C (second compound 0.316 µM, first compound 0.01 µM) of 99.7%. It also gave a viability, T/C [10] of 100%, a viability, T/C [11] of 109% and a viability, T/C [12] of 114%. For the same molecule, the viability, T/C [13] was 128%, the viability, T/C [14] was 116% and the viability, T/C (second compound 1 µM, first compound 0.01 µM) was 112%. The viability, T/C [15] was 120%, the viability, T/C [16] was 126% and the viability, T/C [17] was 122%. It also gave a viability, T/C [18] of 135%, a viability, T/C [19] of 138% and a viability, T/C (second compound 3.16 µM, first compound 0.01 µM) of 76.2%. The viability, T/C [20] was 86.7%, the viability, T/C [21] was 88.9% and the viability, T/C [22] was 93.6%. The viability, T/C [23] was 97.2%, the viability, T/C [24] was 97.8% and the viability, T/C (second compound 10 µM, first compound 0.01 µM) was 77.6%. It also gave a viability, T/C (second compound 10 µM, first compound 0.0316 µM) of 84.5%, a viability, T/C (second compound 10 µM, first compound 0.1 µM) of 87.4% and a viability, T/C (second compound 10 µM, first compound 0.316 µM) of 95.5%. It also gave a viability, T/C (second compound 10 µM, first compound 1 µM) of 91.5% and a viability, T/C (second compound 10 µM, first compound 3.16 µM) of 103%.
